From patent US20090227575A1, “7H-PYRROLO[2,3-H]QUINAZOLINE COMPOUNDS, THEIR USE AS mTOR KINASE AND PI3 KINASE INHIBITORS, AND THEIR [sequence]” (Wyeth, priority 2008, published 2009)
Read-outs that look alike come from different tables or passages of the source.

Legend:
human SMG-1 (hSMG-1) = human SMG-1 (hSMG-1) (Homo sapiens, UniProt Q96Q15); experiment: hSMG-1 kinase assay (DELFIA); type: biochemical; details: read-out: hSMG1 IC50
PI3K-alpha = PI3K-alpha (Homo sapiens, UniProt P42336); experiment: PI3K-alpha fluorescence polarization assay; type: biochemical; details: read-out: PI3 Kinase α IC50
Summary of the method: (§1)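 Diluted enzyme and compound (1% DMSO) reacted with diC8 PIP2 and ATP substrate in 20 mM HEPES pH 7.5, 2 mM MgCl2, 0.05% CHAPS for 30–60 min. Stopped with EDTA buffer holding 10 nM TAMRA probe and 70 nM GST-GRP. FP (mP) read after 30–90 min against zero-time and no-enzyme controls.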

[1] = tested on: human prostate LNCap tumor cell line; experiment: In vitro cell culture growth assay (MTS), LNCap; type: cell-based; details: 72 h, three days after drug treatment
Procedure: (§2) Cell Lines used are human prostate LNCap and human breast MDA468 tumor cell lines. Cells are plated in 96-well culture plates at approximately 3000 cells per well. […] Three days after drug treatment, viable cell densities are determined by cell mediated metabolic conversion of the dye MTS, a well-established indicator of cell proliferation in vitro. Cell growth assays are performed using kits purchased from Promega Corporation (Madison, Wis.), following the protocol provided by the vendor. Measuring absorbance at 490 nm generates MTS assay results. Compound effect on cell proliferation is assessed relative to untreated control cell growth.

PI3K-gamma = PI3K-gamma (Homo sapiens, UniProt P48736); experiment: PI3K-gamma fluorescence polarization assay; type: biochemical; details: read-out: PI3 Kinase γ IC50
PI3K-gamma, sequence (P48736 whole entry, species assumed): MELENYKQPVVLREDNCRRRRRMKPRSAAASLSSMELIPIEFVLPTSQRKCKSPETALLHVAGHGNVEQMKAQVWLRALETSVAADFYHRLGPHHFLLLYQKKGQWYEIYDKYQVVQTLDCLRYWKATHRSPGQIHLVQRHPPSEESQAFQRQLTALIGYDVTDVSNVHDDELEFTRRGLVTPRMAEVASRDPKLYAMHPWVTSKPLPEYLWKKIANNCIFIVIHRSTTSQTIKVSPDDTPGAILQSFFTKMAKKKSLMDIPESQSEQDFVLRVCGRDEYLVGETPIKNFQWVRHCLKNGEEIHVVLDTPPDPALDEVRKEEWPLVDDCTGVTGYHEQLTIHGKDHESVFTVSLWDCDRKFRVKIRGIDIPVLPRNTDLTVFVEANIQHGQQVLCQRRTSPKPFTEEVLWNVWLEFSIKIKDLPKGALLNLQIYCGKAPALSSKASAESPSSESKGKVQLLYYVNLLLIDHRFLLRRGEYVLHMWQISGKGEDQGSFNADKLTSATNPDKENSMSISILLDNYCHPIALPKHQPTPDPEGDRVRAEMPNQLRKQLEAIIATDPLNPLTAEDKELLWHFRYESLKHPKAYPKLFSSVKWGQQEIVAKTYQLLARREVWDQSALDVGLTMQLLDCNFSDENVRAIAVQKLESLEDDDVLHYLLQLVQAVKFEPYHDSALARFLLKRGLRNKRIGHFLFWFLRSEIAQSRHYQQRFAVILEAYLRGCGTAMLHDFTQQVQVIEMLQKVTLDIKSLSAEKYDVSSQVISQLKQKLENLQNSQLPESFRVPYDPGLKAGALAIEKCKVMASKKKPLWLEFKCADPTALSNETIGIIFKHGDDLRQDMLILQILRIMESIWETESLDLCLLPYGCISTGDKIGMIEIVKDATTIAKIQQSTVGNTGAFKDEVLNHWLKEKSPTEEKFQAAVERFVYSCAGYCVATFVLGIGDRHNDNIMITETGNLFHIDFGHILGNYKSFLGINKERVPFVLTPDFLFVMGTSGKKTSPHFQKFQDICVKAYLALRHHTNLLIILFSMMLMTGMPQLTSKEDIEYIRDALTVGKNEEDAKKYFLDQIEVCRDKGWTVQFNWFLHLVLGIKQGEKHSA
Summary of the method: as §1

[2] = tested on: human breast MDA468 tumor cell line; experiment: In vitro cell culture growth assay (MTS), MDA468; type: cell-based; details: 72 h, three days after drug treatment
Procedure: as §2

Human mTOR = Human mTOR (Homo sapiens, UniProt P42345); experiment: mTOR kinase assay (DELFIA format, purified enzyme); type: biochemical; parameters: FLAG
[3] = tested on: human tumor xenograft models; details: cited from earlier work
hSMG-1 = hSMG-1 (Homo sapiens, UniProt Q96Q15); details: read-out: hSMG-1 kinase activity IC50; cited from earlier work
hSMG-1, sequence (Q96Q15 whole entry): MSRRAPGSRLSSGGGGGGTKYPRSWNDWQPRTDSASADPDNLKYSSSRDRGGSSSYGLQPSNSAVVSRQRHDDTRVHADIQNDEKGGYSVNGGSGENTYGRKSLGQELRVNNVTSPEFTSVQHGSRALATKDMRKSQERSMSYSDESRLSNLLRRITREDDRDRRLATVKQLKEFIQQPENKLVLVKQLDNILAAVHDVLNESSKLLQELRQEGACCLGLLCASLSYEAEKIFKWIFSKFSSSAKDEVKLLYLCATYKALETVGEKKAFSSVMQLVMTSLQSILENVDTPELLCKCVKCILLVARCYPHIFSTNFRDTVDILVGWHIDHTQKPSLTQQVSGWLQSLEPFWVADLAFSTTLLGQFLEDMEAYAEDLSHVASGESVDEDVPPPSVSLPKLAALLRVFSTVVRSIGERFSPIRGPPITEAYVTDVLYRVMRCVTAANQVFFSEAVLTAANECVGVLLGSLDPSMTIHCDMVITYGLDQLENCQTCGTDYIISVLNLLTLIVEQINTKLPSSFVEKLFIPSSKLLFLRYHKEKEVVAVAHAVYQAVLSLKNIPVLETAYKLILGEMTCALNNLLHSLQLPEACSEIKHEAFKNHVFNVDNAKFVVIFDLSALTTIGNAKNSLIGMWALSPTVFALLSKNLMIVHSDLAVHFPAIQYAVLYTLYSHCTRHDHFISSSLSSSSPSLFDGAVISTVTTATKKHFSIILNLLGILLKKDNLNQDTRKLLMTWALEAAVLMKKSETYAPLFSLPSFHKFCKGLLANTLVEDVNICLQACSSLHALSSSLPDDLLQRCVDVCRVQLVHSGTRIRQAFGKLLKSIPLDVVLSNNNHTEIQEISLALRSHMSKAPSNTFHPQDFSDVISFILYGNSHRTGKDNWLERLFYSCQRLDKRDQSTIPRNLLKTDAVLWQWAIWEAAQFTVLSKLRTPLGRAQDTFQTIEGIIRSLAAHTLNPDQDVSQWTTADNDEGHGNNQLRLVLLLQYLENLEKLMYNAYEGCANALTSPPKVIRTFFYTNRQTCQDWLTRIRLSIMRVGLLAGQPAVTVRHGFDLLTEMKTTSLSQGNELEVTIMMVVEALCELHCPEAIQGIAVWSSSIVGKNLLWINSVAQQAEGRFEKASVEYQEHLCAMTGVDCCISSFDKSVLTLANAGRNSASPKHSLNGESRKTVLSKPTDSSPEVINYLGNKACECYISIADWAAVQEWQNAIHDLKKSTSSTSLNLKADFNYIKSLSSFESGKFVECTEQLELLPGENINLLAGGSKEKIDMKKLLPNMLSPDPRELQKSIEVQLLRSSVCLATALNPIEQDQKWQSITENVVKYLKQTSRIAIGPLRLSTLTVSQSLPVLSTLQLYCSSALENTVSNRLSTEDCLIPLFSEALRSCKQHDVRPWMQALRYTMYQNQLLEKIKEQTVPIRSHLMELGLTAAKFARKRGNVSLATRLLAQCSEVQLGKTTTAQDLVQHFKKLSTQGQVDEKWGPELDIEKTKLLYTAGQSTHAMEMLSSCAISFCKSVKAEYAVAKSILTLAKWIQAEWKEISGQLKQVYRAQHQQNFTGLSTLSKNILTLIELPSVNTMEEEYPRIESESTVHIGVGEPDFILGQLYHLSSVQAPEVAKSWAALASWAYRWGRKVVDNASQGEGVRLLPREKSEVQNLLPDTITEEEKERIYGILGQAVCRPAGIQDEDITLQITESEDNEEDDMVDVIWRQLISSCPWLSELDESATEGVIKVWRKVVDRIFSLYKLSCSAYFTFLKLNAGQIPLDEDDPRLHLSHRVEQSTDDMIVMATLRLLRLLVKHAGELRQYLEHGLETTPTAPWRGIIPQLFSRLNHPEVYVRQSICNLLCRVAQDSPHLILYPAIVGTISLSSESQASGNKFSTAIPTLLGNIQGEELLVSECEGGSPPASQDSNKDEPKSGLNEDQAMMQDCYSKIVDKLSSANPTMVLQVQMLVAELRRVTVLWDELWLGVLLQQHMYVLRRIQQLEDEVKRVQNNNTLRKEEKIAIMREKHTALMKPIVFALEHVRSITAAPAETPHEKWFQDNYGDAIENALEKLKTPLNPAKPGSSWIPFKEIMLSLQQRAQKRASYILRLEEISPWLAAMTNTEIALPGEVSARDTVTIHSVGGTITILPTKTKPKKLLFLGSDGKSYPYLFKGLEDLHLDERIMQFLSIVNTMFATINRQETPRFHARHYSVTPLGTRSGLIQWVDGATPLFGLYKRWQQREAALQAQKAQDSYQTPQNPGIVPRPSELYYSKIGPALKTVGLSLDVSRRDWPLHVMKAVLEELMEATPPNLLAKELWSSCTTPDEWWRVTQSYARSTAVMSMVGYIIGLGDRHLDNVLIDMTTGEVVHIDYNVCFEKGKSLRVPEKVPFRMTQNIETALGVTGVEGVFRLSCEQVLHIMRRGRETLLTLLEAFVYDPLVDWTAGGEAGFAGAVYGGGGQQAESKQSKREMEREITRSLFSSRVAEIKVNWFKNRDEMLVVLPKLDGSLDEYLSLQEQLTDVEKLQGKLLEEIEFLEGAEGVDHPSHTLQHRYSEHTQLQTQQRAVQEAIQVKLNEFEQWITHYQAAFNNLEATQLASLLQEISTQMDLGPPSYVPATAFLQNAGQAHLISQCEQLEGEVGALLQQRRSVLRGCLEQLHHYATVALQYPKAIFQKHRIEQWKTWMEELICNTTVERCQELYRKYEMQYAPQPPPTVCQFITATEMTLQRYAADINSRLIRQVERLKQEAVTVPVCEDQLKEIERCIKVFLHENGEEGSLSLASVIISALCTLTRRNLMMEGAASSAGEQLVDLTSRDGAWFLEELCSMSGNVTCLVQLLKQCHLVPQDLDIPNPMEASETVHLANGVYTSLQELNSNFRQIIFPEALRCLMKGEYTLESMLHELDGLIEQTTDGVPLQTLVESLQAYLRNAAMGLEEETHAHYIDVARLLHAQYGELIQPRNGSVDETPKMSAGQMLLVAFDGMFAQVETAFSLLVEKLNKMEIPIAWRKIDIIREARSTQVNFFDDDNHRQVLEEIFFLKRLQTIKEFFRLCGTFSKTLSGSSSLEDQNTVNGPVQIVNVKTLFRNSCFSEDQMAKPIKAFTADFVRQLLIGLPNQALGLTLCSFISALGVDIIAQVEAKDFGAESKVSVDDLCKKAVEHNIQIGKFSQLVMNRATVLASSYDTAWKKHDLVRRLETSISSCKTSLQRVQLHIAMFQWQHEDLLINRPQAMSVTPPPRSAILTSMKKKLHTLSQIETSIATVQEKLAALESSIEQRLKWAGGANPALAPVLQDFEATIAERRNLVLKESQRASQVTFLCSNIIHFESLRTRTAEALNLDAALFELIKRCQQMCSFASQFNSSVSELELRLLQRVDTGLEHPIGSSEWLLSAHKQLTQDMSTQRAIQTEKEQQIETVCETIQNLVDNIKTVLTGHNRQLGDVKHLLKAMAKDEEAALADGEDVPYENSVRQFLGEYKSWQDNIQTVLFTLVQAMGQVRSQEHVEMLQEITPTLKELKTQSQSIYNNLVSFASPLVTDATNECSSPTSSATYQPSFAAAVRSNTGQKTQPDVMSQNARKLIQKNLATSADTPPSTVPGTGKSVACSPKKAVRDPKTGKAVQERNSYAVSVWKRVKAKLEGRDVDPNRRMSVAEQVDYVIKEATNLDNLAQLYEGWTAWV

human SMG-1 (hSMG-1), sequence (Q96Q15 whole entry): as above

IC50 (human SMG-1 (hSMG-1)) [nM]	IC50 (Human mTOR; read-out: TOR Kinase IC50) [nM]	Compound	further results
160		CS(=O)(=O)n1ccc2c3nc(-c4ccc(NC(=O)Nc5cccnc5)cc4)nc(N4CCOCC4)c3ccc21 [Example 85, 1-{4-[7-(methylsulfonyl)-4-morpholin-4-yl-7H-pyrrolo[2,3-h]quinazolin-2-yl]phenyl}-3-pyridin-3-ylurea]	IC50 (PI3K-alpha): 22 nM; IC50 [1]: 48 nM; IC50 (PI3K-gamma): 142 nM; IC50 [2]: 70 nM
200		CCNC(=O)Nc1ccc(-c2nc(N3CCOCC3)c3ccc4c(ccn4S(C)(=O)=O)c3n2)cc1 [Example 89, 1-ethyl-3-{4-[7-(methylsulfonyl)-4-morpholin-4-yl-7H-pyrrolo[2,3-h]quinazolin-2-yl]phenyl}urea]	IC50 [1]: 690 nM; IC50 [2]: 1900 nM
> 20000	2050	Cn1ccc2c3nc(-c4ccc(NC(=O)NC5CCCC5)cc4)nc(N4CCOCC4)c3ccc21 [Example 105, 1-cyclopentyl-3-[4-(7-methyl-4-morpholin-4-yl-7H-pyrrolo[2,3-h]quinazolin-2-yl)phenyl]urea]	
16500	1500	Cn1ccc2c3nc(-c4ccc(NC(=O)NC5CCC5)cc4)nc(N4CCOCC4)c3ccc21 [Example 106, 1-cyclobutyl-3-[4-(7-methyl-4-morpholin-4-yl-7H-pyrrolo[2,3-h]quinazolin-2-yl)phenyl]urea]	
> 20000	7250	Cn1ccc2c3nc(-c4ccc(NC(=O)NC5CCCCC5)cc4)nc(N4CCOCC4)c3ccc21 [Example 108, 1-cyclohexyl-3-[4-(7-methyl-4-morpholin-4-yl-7H-pyrrolo[2,3-h]quinazolin-2-yl)phenyl]urea]	
> 20000	2050	CCCOC(=O)Nc1ccc(-c2nc(N3CCOCC3)c3ccc4c(ccn4S(C)(=O)=O)c3n2)cc1 [Example 109, propyl {4-[7-(methylsulfonyl)-4-morpholin-4-yl-7H-pyrrolo[2,3-h]quinazolin-2-yl]phenyl}carbamate]	
43	2	CNC(=O)Nc1ccc(-c2nc(N3CCOCC3)c3ccc4c(ccn4S(C)(=O)=O)c3n2)cc1 [Example 110, 1-methyl-3-{4-[7-(methylsulfonyl)-4-morpholin-4-yl-7H-pyrrolo[2,3-h]quinazolin-2-yl]phenyl}urea]	IC50 (PI3K-alpha): 95 nM; IC50 [1]: 880 nM; IC50 (PI3K-gamma): 1910 nM; IC50 [2]: 1700 nM
290	15	CN(C)CCn1ccc2c3nc(-c4ccc(NC(=O)Nc5cccnc5)cc4)nc(N4CCOCC4)c3ccc21 [Example 111, 1-(4-{7-[2-(dimethylamino)ethyl]-4-morpholin-4-yl-7H-pyrrolo[2,3-h]quinazolin-2-yl}phenyl)-3-pyridin-3-ylurea]	IC50 (PI3K-alpha): 118 nM; IC50 (PI3K-gamma): 860 nM
> 20000	2800	CC(=O)Nc1ccc(-c2nc(N3CCOCC3)c3ccc4c(ccn4CCN(C)C)c3n2)cc1 [Example 112, N-(4-{7-[2-(dimethylamino)ethyl]-4-morpholin-4-yl-7H-pyrrolo[2,3-h]quinazolin-2-yl}phenyl)acetamide]	
490	67	CNC(=O)Nc1ccc(-c2nc(N3CCOCC3)c3ccc4c(ccn4CCN(C)C)c3n2)cc1 [Example 113, 1-(4-{7-[2-(dimethylamino)ethyl]-4-morpholin-4-yl-7H-pyrrolo[2,3-h]quinazolin-2-yl}phenyl)-3-methylurea]	IC50 (PI3K-alpha): 427 nM; IC50 (PI3K-gamma): 3090 nM
10500		CC(=O)c1cccc(NC(=O)Nc2ccc(-c3nc(N4CCOCC4)c4ccc5c(ccn5C)c4n3)cc2)c1 [Example 114, 1-(3-acetylphenyl)-3-[4-(7-methyl-4-morpholin-4-yl-7H-pyrrolo[2,3-h]quinazolin-2-yl)phenyl]urea]	IC50 (Human mTOR): 5550 nM
4250	470	CC(=O)c1ccc(NC(=O)Nc2ccc(-c3nc(N4CCOCC4)c4ccc5c(ccn5C)c4n3)cc2)cc1 [Example 115, 1-(4-acetylphenyl)-3-[4-(7-methyl-4-morpholin-4-yl-7H-pyrrolo[2,3-h]quinazolin-2-yl)phenyl]urea]	
> 20000	1270	Cc1noc(C)c1NC(=O)Nc1ccc(-c2nc(N3CCOCC3)c3ccc4c(ccn4C)c3n2)cc1 [Example 116, 1-(3,5-dimethylisoxazol-4-yl)-3-[4-(7-methyl-4-morpholin-4-yl-7H-pyrrolo[2,3-h]quinazolin-2-yl)phenyl]urea]	
> 20000	600	Cn1ccc2c3nc(-c4ccc(NC(=O)NC5CCS(=O)(=O)C5)cc4)nc(N4CCOCC4)c3ccc21 (centres unmarked) [Example 117, 1-(1,1-dioxidotetrahydrothiophen-3-yl)-3-[4-(7-methyl-4-morpholin-4-yl-7H-pyrrolo[2,3-h]quinazolin-2-yl)phenyl]urea]	
15000	625	Cn1ccc2c3nc(-c4ccc(NC(=O)NCCF)cc4)nc(N4CCOCC4)c3ccc21 [Example 118, 1-(2-fluoroethyl)-3-[4-(7-methyl-4-morpholin-4-yl-7H-pyrrolo[2,3-h]quinazolin-2-yl)phenyl]urea]	
6500	1260	Cn1ccc2c3nc(-c4ccc(NC(=O)NCC(F)(F)F)cc4)nc(N4CCOCC4)c3ccc21 [Example 119, 1-[4-(7-methyl-4-morpholin-4-yl-7H-pyrrolo[2,3-h]quinazolin-2-yl)phenyl]-3-(2,2,2-trifluoroethyl)urea]	
3300	625	Cn1ccc2c3nc(-c4ccc(NC(=O)NCCc5ccncc5)cc4)nc(N4CCOCC4)c3ccc21 [Example 120, 1-[4-(7-methyl-4-morpholin-4-yl-7H-pyrrolo[2,3-h]quinazolin-2-yl)phenyl]-3-(2-pyridin-4-ylethyl)urea]	
140	26	CCCNC(=O)Nc1ccc(-c2nc(N3CCOCC3)c3ccc4c(ccn4S(C)(=O)=O)c3n2)cc1 [Example 121, 1-{4-[7-(methylsulfonyl)-4-morpholin-4-yl-7H-pyrrolo[2,3-h]quinazolin-2-yl]phenyl}-3-propylurea]	IC50 [1]: 2000 nM; IC50 [2]: 30000 nM
5500	2550	Cn1ccc2c3nc(-c4cccc(NC(=O)Nc5cccnc5)c4)nc(N4CCOCC4)c3ccc21 [Example 123, 1-[3-(7-methyl-4-morpholin-4-yl-7H-pyrrolo[2,3-h]quinazolin-2-yl)phenyl]-3-pyridin-3-ylurea]	
> 20000	1900	CCOC(=O)Nc1cccc(-c2nc(N3CCOCC3)c3ccc4c(ccn4C)c3n2)c1 [Example 124, ethyl [3-(7-methyl-4-morpholin-4-yl-7H-pyrrolo[2,3-h]quinazolin-2-yl)phenyl]carbamate]	
> 20000	1300	Cn1ccc2c3nc(-c4cccc(NC(=O)C5CC5)c4)nc(N4CCOCC4)c3ccc21 [Example 125, N-[3-(7-methyl-4-morpholin-4-yl-7H-pyrrolo[2,3-h]quinazolin-2-yl)phenyl]cyclopropanecarboxamide]	
> 20000	1900	CCCC(=O)Nc1cccc(-c2nc(N3CCOCC3)c3ccc4c(ccn4C)c3n2)c1 [Example 126, N-[3-(7-methyl-4-morpholin-4-yl-7H-pyrrolo[2,3-h]quinazolin-2-yl)phenyl]butanamide]	
15500	1500	CCCNC(=O)Nc1cccc(-c2nc(N3CCOCC3)c3ccc4c(ccn4C)c3n2)c1 [Example 127, 1-[3-(7-methyl-4-morpholin-4-yl-7H-pyrrolo[2,3-h]quinazolin-2-yl)phenyl]-3-propylurea]	
> 20000	1800	CCNC(=O)Nc1cccc(-c2nc(N3CCOCC3)c3ccc4c(ccn4C)c3n2)c1 [Example 128, 1-ethyl-3-[3-(7-methyl-4-morpholin-4-yl-7H-pyrrolo[2,3-h]quinazolin-2-yl)phenyl]urea]	
> 20000	1500	CCC(=O)Nc1cccc(-c2nc(N3CCOCC3)c3ccc4c(ccn4C)c3n2)c1 [Example 129, N-[3-(7-methyl-4-morpholin-4-yl-7H-pyrrolo[2,3-h]quinazolin-2-yl)phenyl]propanamide]	
		Cn1c(=O)n(-c2ccc(C(C)(C)C#N)cc2)c2c3cc(-c4cnc5ccccc5c4)ccc3ncc21 [NVP-BEZ-235, 2-methyl-2-(4-(3-methyl-2-oxo-8-(quinolin-3-yl)-2,3-dihydro-1H-imidazo[4,5-c]quinolin-1-yl)phenyl)propanenitrile]	activity against human tumor models ([3]; prostrate (PC-3) and glioblastoma (U-87)): demonstrated activity
		Oc1cccc(-c2nc(N3CCOCC3)c3oc4ncccc4c3n2)c1 [PI103, 3-(4-(4-morpholinyl)pyrido[3′,2′:4,5]furo[3,2-d]pyrimidin-2-yl)phenol]	activity against human tumor models ([3]; I.P. dosing in mice, U87MG, PC3, MDA-MB-468, MDA-MB-435, HCT 116, SKOV3, IGROV-1): demonstrated activity
		COC[C@H]1OC(=O)c2coc3c2[C@@]1(C)C1=C(C3=O)[C@@H]2CCC(=O)[C@@]2(C)C[C@H]1OC(C)=O [Wortmannin]	IC50 (hSMG-1): ~60 nM
		Cn1c(=O)c2c(ncn2C)n(C)c1=O [caffeine]	IC50 (hSMG-1): 300000 nM
